The values that follow come from PubChem BioAssay (NCI).

Among the test systems are RXF 393 renal; SF-268 CNS; EKVX NSCLC; RPMI-8226 leukemia; A549 NSCLC; OVCAR-5 ovarian; MDA-N; COLO 205 colon; SR leukemia.
Common to all, as to test: NCI-60 cell line screen, 48 h

SMILES strings stand for the structures.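 Interpolation was linear, between the two tested concentrations surrounding the appropriate level; five concentrations were tested over 48 hours in 96-well plates. GI50: concentration for 50% inhibition of growth. The concentration for full growth arrest is given as TGI.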

As to `O=C1C=Cc2c(Cl)sc(Cl)c21`, the TGI with RXF 393 renal was 4.28 µM; in the assay with SF-268 CNS, 3.58 µM; in the assay on EKVX NSCLC, 16.8 µM; in the assay on RPMI-8226 leukemia, 4.02 µM; with A549 NSCLC, above 90.6 µM; in the assay on OVCAR-5 ovarian it was 24.8 µM.
For `COC(c1ccsc1)C(C#N)(C#N)N=Cc1ccsc1` (stereo not drawn), the TGI in the assay on MDA-N was 33.4 µM; in the assay with RXF 393 renal it was 27 µM; in the assay with SF-268 CNS it was 33.8 µM; in the assay with EKVX NSCLC it was 32.9 µM; with A549 NSCLC, above 100 µM; with COLO 205 colon it was 33.1 µM. Moreover, the TGI in the assay on OVCAR-5 ovarian stood at 46.6 µM.
For `Cc1c(CNc2ccc(Cl)c(C(=O)NC(CC(=O)O)C(=O)O)c2)ccc2nc(N)nc(N)c12` (stereo not drawn), the TGI in the assay on MDA-N, in the assay on RXF 393 renal, with SF-268 CNS, in the assay on EKVX NSCLC, in the assay on A549 NSCLC and in the assay with COLO 205 colon was above 1000 µM each time. The GI50 in the assay with RXF 393 renal is above 1000 µM; in the assay on EKVX NSCLC, 284 µM; in the assay on COLO 205 colon, 114 µM.
With `CCSSCS(C)(=O)=O`, the TGI was above 100 µM with MDA-N; 49.5 µM with RXF 393 renal; above 100 µM in the assay with SF-268 CNS; above 100 µM with SR leukemia; above 100 µM with EKVX NSCLC; above 100 µM in the assay on A549 NSCLC. The figures for the TGI in the assay on COLO 205 colon and in the assay with OVCAR-5 ovarian were 23.5 µM and above 100 µM, respectively.
As for `COc1ccc(-c2oc3ccc(C)cc3c(=O)c2O)cc1`, the TGI in the assay on MDA-N, with RXF 393 renal, in the assay on SF-268 CNS, in the assay with EKVX NSCLC, in the assay with RPMI-8226 leukemia and in the assay with A549 NSCLC was above 100 µM in each case. For the same compound, the TGI in the assay with COLO 205 colon and in the assay on OVCAR-5 ovarian was above 100 µM throughout.
Turning to `CCCCC/C=C1/CC(CO)(COC(=O)CC(C(C)C)C(C)C)OC1=O` (stereo not drawn), the TGI in the assay with MDA-N was 17 µM; in the assay with RXF 393 renal it was 29.8 µM; in the assay on SF-268 CNS it was 30.3 µM; in the assay with SR leukemia, 42.8 µM; in the assay with EKVX NSCLC, 31.5 µM; with A549 NSCLC, 27.1 µM. The TGI with COLO 205 colon is 14.7 µM; with OVCAR-5 ovarian, 29.7 µM.
For `COc1cc(/C=C2\C[C@H]3[C@@H]4CC=C5C[C@@H](N6CCCC6)CC[C@]5(C)[C@H]4CC[C@]3(C)[C@H]2O)cc(OC)c1OC`, the TGI in the assay on RXF 393 renal was 20.2 µM; in the assay on SF-268 CNS, 16.5 µM; in the assay with SR leukemia, above 100 µM; in the assay on EKVX NSCLC, 30.2 µM; in the assay with RPMI-8226 leukemia, 27 µM; in the assay with A549 NSCLC it was 33.1 µM. Moreover, the TGI is 36.5 µM in the assay on COLO 205 colon and 24.4 µM with OVCAR-5 ovarian.
As to `CSc1nc2ccccc2c(=O)n1/N=C1\C(=O)N(CN2CCOCC2)c2ccc(Cl)cc21`, the TGI in the assay with MDA-N is above 100 µM; with RXF 393 renal, 44.8 µM; in the assay with SF-268 CNS, above 100 µM; in the assay with EKVX NSCLC it was 64.8 µM; with A549 NSCLC, above 100 µM; with COLO 205 colon, 36.6 µM. The TGI in the assay on OVCAR-5 ovarian is above 100 µM.
Turning to `CC/C(Cl)=N\OC(=O)Nc1ccc(OC)cc1`, the TGI worked out at 11.3 µM in the assay with MDA-N; 6.52 µM in the assay with RXF 393 renal; 32.1 µM in the assay with SF-268 CNS; 11.9 µM with EKVX NSCLC; 5.59 µM with RPMI-8226 leukemia; 32.6 µM with A549 NSCLC. The TGI stood at 3.92 µM in the assay with COLO 205 colon and 11.3 µM with OVCAR-5 ovarian.
As to `O=S(=O)(c1cc(Cl)ccc1Cl)N1CCN(S(=O)(=O)c2cc(Cl)ccc2Cl)CC1`, the TGI is above 100 µM in the assay with MDA-N; above 100 µM with RXF 393 renal; above 100 µM in the assay with SF-268 CNS; above 100 µM with A549 NSCLC; 30 µM in the assay on OVCAR-5 ovarian.
For `CC(=O)Nc1ccc2c(C(=O)O)c(C)c(=O)[nH]c2n1`, the TGI in the assay with MDA-N, with RXF 393 renal, in the assay on SF-268 CNS, with EKVX NSCLC, in the assay on RPMI-8226 leukemia and in the assay on A549 NSCLC was above 100 µM throughout. In addition, the TGI in the assay with COLO 205 colon and in the assay with OVCAR-5 ovarian was above 100 µM in each case.
`COc1cc(Oc2nc3ccccc3nc2C(=O)O)cc(OC)c1OC`: the TGI in the assay on RXF 393 renal, in the assay with SF-268 CNS, in the assay on SR leukemia, in the assay with EKVX NSCLC, with RPMI-8226 leukemia and in the assay with A549 NSCLC was above 100 µM in each case. Besides, the TGI with COLO 205 colon and with OVCAR-5 ovarian was above 100 µM in each case.
Consider `CCOC(=O)c1c(SC(=O)c2cc(OC)c(OC)c(OC)c2)n(-c2ccccc2)c(=S)n(-c2ccccc2)c1=O`, for which the TGI in the assay with MDA-N, with RXF 393 renal, in the assay with SF-268 CNS, in the assay with SR leukemia, in the assay with EKVX NSCLC and with A549 NSCLC was above 100 µM in each case. For the same compound, the TGI in the assay on COLO 205 colon and with OVCAR-5 ovarian was above 100 µM in each case.
For `COC12C=C/C(=C(/C(=O)OCc3ccncn3)C(=O)CCCCCCCCC3(OC)C=C/C(=C(/C(=O)OCc4ccncn4)C(=O)CCCCCCCC1)O3)O2`, the GI50 in the assay on SF-268 CNS was 0.314 µM; with SR leukemia, 0.296 µM; with EKVX NSCLC, 0.35 µM; in the assay on RPMI-8226 leukemia, 0.263 µM; in the assay with A549 NSCLC, 0.363 µM; with COLO 205 colon, 0.348 µM. Also, the GI50 with OVCAR-5 ovarian was 0.334 µM. Besides, the TGI is 1.92 µM in the assay with SF-268 CNS; above 100 µM in the assay on SR leukemia; 2.34 µM in the assay on EKVX NSCLC; 0.995 µM in the assay with RPMI-8226 leukemia; 1.49 µM with A549 NSCLC; 1.32 µM with COLO 205 colon. The same compound returned a TGI in the assay on OVCAR-5 ovarian of 4.81 µM.
On to `CCN1CCN(C(=O)[C@]23CC[C@@H](C)[C@H](C)[C@@H]2C2=CC[C@@H]4[C@@]5(C)C/C(=C/c6cccnc6)C(=O)C(C)(C)[C@@H]5CC[C@@]4(C)[C@]2(C)CC3)CC1`, for which the GI50 in the assay with RXF 393 renal is 1.45 µM; in the assay on SF-268 CNS, 1.77 µM; in the assay with SR leukemia, 2.38 µM; with EKVX NSCLC it was 2.17 µM; in the assay on RPMI-8226 leukemia, 2.18 µM; in the assay on A549 NSCLC, 3.15 µM. The GI50 in the assay on COLO 205 colon was 2.19 µM; with OVCAR-5 ovarian it was 1.54 µM. Besides, the TGI with RXF 393 renal came out at 2.83 µM; in the assay with SF-268 CNS it was 4.02 µM; with SR leukemia, 7.09 µM; with EKVX NSCLC it was 7.32 µM; in the assay on RPMI-8226 leukemia it was 6.35 µM; in the assay on A549 NSCLC it was 16.8 µM. The TGI with COLO 205 colon turned out to be 5.12 µM; with OVCAR-5 ovarian, 2.93 µM.
